Results taken from article PMC6946680, “Modulation of brain cation-Cl^− cotransport via the SPAK kinase inhibitor ZT-1a” (Nature Communications, 2020).
Values joined by “and” are separate entries in the source; they are usually repeats but may differ in a detail not shown here. Identical values can stand only once. Like-named read-outs stand apart in the source and are kept apart here.

Key:
[1] = system: T1, SPAK–WNK1 interaction; experiment: SPAK antibody pull-down / co-immunoprecipitation of WNK1 from HEK-293 cell lysates; assay type: binding, human; settings: Fig S6
T1 construct: endogenous in cells; host or cells: HEK-293
Method: Supplemental Fig. 6 Evidence that SPAK associates with WNK1, and interaction is disrupted by ZT-1a and its analogs. Non-transfected HEK293 cell lysates were incubated with the RFQV peptide […]
ZT-1a for 30 min on ice and subjected to SPAK antibody immunoprecipitation. Immunoprecipitates were subjected to immunoblot probed with antibody to total WNK1 and antibody to total SPAK. Left panels: representative immunoblots. Right panels, summarized data quantitated by densitometry (n=3, means ± SEM; **,

[2] = system: KCC3 pThr991; experiment: Immunoblot of KCC site 1 phosphorylation (KCC3 Thr991) in HEK-293 cells transfected with FLAG-KCC3; assay type: cell-based, human; settings: for IC50: read-out: KCC3 pThr991 (μM), 50% inhibition, HEK-293, n = 3
[3] = system: SPAK pSer373; experiment: Immunoblot of SPAK/OSR1 p-Ser373/Ser325 in HEK-293 cells; assay type: cell-based, human; settings: read-out: SPAK pSer373 (μM), 50% inhibition, HEK-293, n = 3
[4] = system: NKCC1 pThr203/207/212; experiment: Immunoblot of NKCC1 p-Thr203/Thr207/Thr212 in HEK-293 cells; assay type: cell-based, human; settings: read-out: NKCC1 pThr203 (μM), 50% inhibition, HEK-293, n = 3
[5] = system: KCC3 pThr1048; experiment: Immunoblot of KCC site 2 phosphorylation (KCC3 Thr1048) in HEK-293 cells transfected with FLAG-KCC3; assay type: cell-based, human; settings: read-out: KCC3 pThr1048 (μM), 50% inhibition, HEK-293, n = 3
[6] = system: SPAK pSer373; experiment: Immunoblot of SPAK/OSR1 p-Ser373/Ser325 in HEK-293 cells; assay type: cell-based, human
Method: (§1) Band intensities were quantitated with ImageJ software. ***p < 0.001; **p < 0.01; *p < 0.05; ns, nonsignificant [by one-way ANOVA with post hoc testing (n = 6, error bars represent the mean ± SEM)].
(§2) Thirty-six hours post transfection, cells were stimulated with either control isotonic or hypotonic medium for a period of 30 min. […] Protein concentrations were determined using the Bradford method. Cells were treated with the indicated concentrations of the SPAK/OSR1 inhibitors.

[7] = system: NKCC1 pThr203/207/212; experiment: Immunoblot of NKCC1 p-Thr203/Thr207/Thr212 in HEK-293 cells; assay type: cell-based, human
Method: as §1, §2

[8] = system: KCC3 pThr1048; experiment: Immunoblot of KCC site 2 phosphorylation (KCC3 Thr1048) in HEK-293 cells transfected with FLAG-KCC3; assay type: cell-based, human
[9] = system: mouse model of ischemic stroke (tMCAO); experiment: Infarct volume and hemispheric swelling (TTC) 24 h after tMCAO; assay type: in vivo; settings: Fig 7b, individual mice
[10] = Hypotonic low Cl, compound concentration 1 (unit not given)
[11] = Hypotonic low Cl, compound concentration 3 (unit not given)
[12] = Hypotonic low Cl, compound concentration 10 (unit not given)
[13] = Isotonic control, compound concentration 1 (unit not given)
[14] = Isotonic control, compound concentration 3 (unit not given)
[15] = Isotonic control, compound concentration 10 (unit not given)

SMILES: Cc1cc(C(C#N)c2ccc(Cl)cc2)c(Cl)cc1NC(=O)c1cc(I)cc(I)c1O (centres unmarked) [Closanel]
- WNK1 co-immunoprecipitated with SPAK (band quantification) ([1]; 10 uM): 0.416 and 0.33 and 0.3682 and 0.389
- WNK1 co-immunoprecipitated with SPAK (band quantification) ([1]; 30 uM): 0.353 and 0.208 and 0.256 and 0.231
- WNK1 co-immunoprecipitated with SPAK (band quantification) ([1]; 100 uM): 0.179 and 0.139 and 0.1611 and 0.153
- WNK1 co-immunoprecipitated with SPAK (band quantification) ([1]; 1000 uM): 0.036 and 0.031 and 0.0232 and 0.027

SMILES: Cc1cc(C(C#N)c2ccc(Cl)cc2)c(Cl)cc1NC(=O)c1ccccc1[N+](=O)[O-] (centres unmarked) [Compound 1e]
- IC50 ([2]; Iso (isotonic)): > 10 µM
- IC50 ([2]; hypo (hypotonic)): > 10 µM
- IC50 ([3]; Iso (isotonic)): > 10 µM
- IC50 ([3]; hypo (hypotonic)): > 10 µM
- IC50 ([4]; Iso (isotonic)): > 10 µM
- IC50 ([4]; hypo (hypotonic)): > 10 µM
- IC50 ([5]; Iso (isotonic)): > 10 µM
- IC50 ([5]; hypo (hypotonic)): > 10 µM

SMILES: Cc1cc(C(C#N)c2ccc(Cl)cc2)c(Cl)cc1NC(=O)c1cccc(O)c1O (centres unmarked) [Compound 1i]
- IC50 ([2]; Iso (isotonic)): > 10 µM
- IC50 ([2]; hypo (hypotonic)): > 10 µM
- IC50 ([3]; Iso (isotonic)): > 10 µM
- IC50 ([3]; hypo (hypotonic)): > 10 µM
- IC50 ([4]; Iso (isotonic)): > 10 µM
- IC50 ([4]; hypo (hypotonic)): > 10 µM
- IC50 ([5]; Iso (isotonic)): > 10 µM
- IC50 ([5]; hypo (hypotonic)): > 10 µM

SMILES: COc1ccc(Cl)cc1C(=O)Nc1cc(Cl)c(C(C#N)c2ccc(Cl)cc2)cc1C (centres unmarked) [Compound 1j]
- IC50 ([2]; Iso (isotonic)): > 10 µM
- IC50 ([2]; hypo (hypotonic)): > 10 µM
- IC50 ([3]; Iso (isotonic)): > 10 µM
- IC50 ([3]; hypo (hypotonic)): > 10 µM
- IC50 ([4]; Iso (isotonic)): > 10 µM
- IC50 ([4]; hypo (hypotonic)): > 10 µM
- IC50 ([5]; Iso (isotonic)): > 10 µM
- IC50 ([5]; hypo (hypotonic)): > 10 µM

SMILES: Cc1cc(C(C#N)c2ccc(Cl)cc2)c(Cl)cc1NC(=O)c1cc(Cl)cc(Cl)c1O (centres unmarked) [ZT-1f]
- pSer373 / SPAK [6, 10]: 0.49 and 0.51 and 0.58 and 0.552
- pSer373 / SPAK [6, 11]: 0.255 and 0.215 and 0.1963 and 0.207
- pSer373 / SPAK [6, 12]: 0.059 and 0.041 and 0.05 and 0.046
- pSer373 / SPAK [6, 13]: 0.221 and 0.274 and 0.241 and 0.291
- pSer373 / SPAK [6, 14]: 0.101 and 0.09 and 0.083 and 0.121
- pSer373 / SPAK [6, 15]: 0.031 and 0.026 and 0.028
- pThrNKCC1 / NKCC1 [7, 10]: 0.511 and 0.43 and 0.48 and 0.55
- pThrNKCC1 / NKCC1 [7, 11]: 0.144 and 0.139 and 0.1273 and 0.131
- pThrNKCC1 / NKCC1 [7, 12]: 0.029 and 0.031 and 0.039 and 0.026
- pThrNKCC1 / NKCC1 [7, 13]: 0.187 and 0.123 and 0.15 and 0.173
- pThrNKCC1 / NKCC1 [7, 15]: 0.009 and 0.011 and 0.016 and 0.012
- Site-1 phospho / KCC [2, 10]: 0.591 and 0.61 and 0.578 and 0.662
- Site-1 phospho / KCC [2, 11]: 0.501 and 0.522 and 0.538 and 0.551
- Site-1 phospho / KCC [2, 12]: 0.304 and 0.287 and 0.249 and 0.4315
- Site-1 phospho / KCC [2, 13]: 0.52 and 0.572 and 0.465 and 0.481
- Site-1 phospho / KCC [2, 14]: 0.476 and 0.441 and 0.483 and 0.501
- Site-1 phospho / KCC [2, 15]: 0.412 and 0.386 and 0.366 and 0.392
- Site-2 phospho / KCC [8, 10]: 0.535 and 0.483 and 0.512 and 0.467
- Site-2 phospho / KCC [8, 11]: 0.341 and 0.264 and 0.311 and 0.293
- Site-2 phospho / KCC [8, 12]: 0.109 and 0.131 and 0.09 and 0.115
- Site-2 phospho / KCC [8, 13]: 0.486 and 0.369 and 0.411 and 0.451
- Site-2 phospho / KCC [8, 14]: 0.191 and 0.175 and 0.185 and 0.163
- Site-2 phospho / KCC [8, 15]: 0.073 and 0.097 and 0.081 and 0.092

SMILES: Cc1cc(C(C#N)c2ccc(Cl)cc2)c(Cl)cc1NC(=O)c1cc(F)ccc1O (centres unmarked) [ZT-1g]
- pSer373 / SPAK [6, 10]: 0.101 and 0.097 and 0.112 and 0.0903
- pSer373 / SPAK [6, 11]: 0.058 and 0.071 and 0.066 and 0.078
- pSer373 / SPAK [6, 12]: 0.044 and 0.027 and 0.035 and 0.041
- pSer373 / SPAK [6, 13]: 0.034 and 0.041 and 0.029 and 0.046
- pSer373 / SPAK [6, 15]: 0.017 and 0.015 and 0.013 and 0.016
- pThrNKCC1 / NKCC1 [7, 10]: 0.41 and 0.38 and 0.36 and 0.43
- pThrNKCC1 / NKCC1 [7, 11]: 0.21 and 0.19 and 0.176 and 0.196
- pThrNKCC1 / NKCC1 [7, 12]: 0.1 and 0.064 and 0.089 and 0.097
- pThrNKCC1 / NKCC1 [7, 13]: 0.306 and 0.28 and 0.251 and 0.293
- pThrNKCC1 / NKCC1 [7, 14]: 0.167 and 0.134 and 0.121 and 0.172
- pThrNKCC1 / NKCC1 [7, 15]: 0.035 and 0.039 and 0.045 and 0.032
- Site-1 phospho / KCC [2, 10]: 1.44 and 1.512 and 1.37 and 1.612
- Site-1 phospho / KCC [2, 11]: 1.67 and 1.55 and 1.71 and 1.58
- Site-1 phospho / KCC [2, 12]: 1.28 and 1.109 and 1.16 and 1.25
- Site-1 phospho / KCC [2, 13]: 1.31 and 1.461 and 1.597 and 1.37
- Site-1 phospho / KCC [2, 14]: 1.16 and 1.27 and 1.05 and 1.23
- Site-1 phospho / KCC [2, 15]: 0.79 and 0.93 and 0.85 and 0.712
- Site-2 phospho / KCC [8, 10]: 0.321 and 0.39 and 0.36 and 0.315
- Site-2 phospho / KCC [8, 11]: 0.263 and 0.275 and 0.22 and 0.253
- Site-2 phospho / KCC [8, 12]: 0.1 and 0.116 and 0.092 and 0.107
- Site-2 phospho / KCC [8, 13]: 0.389 and 0.326 and 0.357 and 0.301
- Site-2 phospho / KCC [8, 14]: 0.233 and 0.197 and 0.175 and 0.227
- Site-2 phospho / KCC [8, 15]: 0.104 and 0.076 and 0.11 and 0.095

SMILES: Cc1cc(C(C#N)c2ccc(Cl)cc2)c(Cl)cc1NC(=O)c1cccc(F)c1O (centres unmarked) [ZT-1h]
- pSer373 / SPAK [6, 10]: 0.297 and 0.248 and 0.275 and 0.253
- pSer373 / SPAK [6, 11]: 0.179 and 0.135 and 0.168 and 0.158
- pSer373 / SPAK [6, 12]: 0.066 and 0.034 and 0.051 and 0.049
- pSer373 / SPAK [6, 13]: 0.112 and 0.124 and 0.132 and 0.106
- pSer373 / SPAK [6, 14]: 0.08 and 0.07 and 0.064 and 0.084
- pSer373 / SPAK [6, 15]: 0.034 and 0.025 and 0.043 and 0.026
- pThrNKCC1 / NKCC1 [7, 10]: 0.317 and 0.294 and 0.283 and 0.306
- pThrNKCC1 / NKCC1 [7, 11]: 0.131 and 0.156 and 0.1342 and 0.125
- pThrNKCC1 / NKCC1 [7, 13]: 0.112 and 0.132 and 0.122 and 0.109
- pThrNKCC1 / NKCC1 [7, 14]: 0.022 and 0.043 and 0.035 and 0.028
- pThrNKCC1 / NKCC1 [7, 15]: 0.008 and 0.006 and 0.004 and 0.005
- Site-1 phospho / KCC [2, 10]: 0.488 and 0.427 and 0.359 and 0.502
- Site-1 phospho / KCC [2, 11]: 0.412 and 0.376 and 0.392 and 0.431
- Site-1 phospho / KCC [2, 12]: 0.165 and 0.187 and 0.122 and 0.203
- Site-1 phospho / KCC [2, 13]: 0.455 and 0.431 and 0.5108 and 0.482
- Site-1 phospho / KCC [2, 14]: 0.419 and 0.386 and 0.354 and 0.437
- Site-1 phospho / KCC [2, 15]: 0.215 and 0.201 and 0.251 and 0.276
- Site-2 phospho / KCC [8, 10]: 0.281 and 0.258 and 0.279 and 0.266
- Site-2 phospho / KCC [8, 11]: 0.143 and 0.176 and 0.159 and 0.132
- Site-2 phospho / KCC [8, 12]: 0.021 and 0.042 and 0.035 and 0.025
- Site-2 phospho / KCC [8, 13]: 0.271 and 0.243 and 0.219 and 0.263
- Site-2 phospho / KCC [8, 14]: 0.186 and 0.176 and 0.131 and 0.159
- Site-2 phospho / KCC [8, 15]: 0.052 and 0.041 and 0.03 and 0.048

SMILES: Cc1cc(C(C#N)c2ccc(Cl)cc2)c(Cl)cc1NC(=O)c1cc(Cl)ccc1O (centres unmarked) [ZT]
- Hemisphere swelling (%) ([9]; group ZT 2.5): 11.06% and 15.88% and 13.11% and 15.27% and 16.5% and 21.75%
- Infarct volume (mm3) ([9]; group ZT 2.5): 29.36 mm3 and 90.65 mm3 and 33.9 mm3 and 61.9 mm3 and 46.64 mm3 and 99.8 mm3
- Hemisphere swelling (%) ([9]; group ZT 5.0): 16.2% and 16.76% and 19.99% and 9.25% and 8.47% and 7.57% and 9.24% and 4.63% and 10.39% and 8.48% and 13.8% and 7.91%
- Infarct volume (mm3) ([9]; group ZT 5.0): 48.74 mm3 and 86.87 mm3 and 49.93 mm3 and 31.43 mm3 and 42.1 mm3 and 27.75 mm3 and 25.29 mm3 and 24.11 mm3 and 27.25 mm3 and 37.2 mm3 and 90 mm3 and 33.39 mm3
